Measured values reported in patent US20060229358A1, “Pharmaceutical composition containing flavonoids” (Taipei Medical University, priority 2005, published 2006).
Read-outs that look alike come from different tables or passages of the source.

What was measured:
PDE4L (LARBS) = tested on: T1, PDE4L (LARBS); test: Binding to peripheral LARBS (PDE4L); conditions: considered equal to the PDE4 IC50
T1 construct: other: considered equal to the PDE4 IC50
Source text: [21]. […] In the brain, there are two binding sites for rolipram, which are high (HARBS) and low affinity rolipram binding sites (LARBS), while in the periphery of bronchi and lung there exist only LARBS. Generally, the anti-inflammatory and the bronchodilatory effects of rolipram are considered as its ability to bind with LARBS [21].

[1] = tested on: inflammatory cells in BALF of OVA-sensitized BALB/c mice; test: Inflammatory cells in BALF of OVA-sensitized mice (Assay III); format: in vivo, mouse; conditions: FIG. 3B
Protocol: (§1) Sensitization, airway challenge, and allergen provocation was carried out as described by Kanehiro et al with some modifications. The female BALB/c mice from 8 to 12 week of age were obtained from National Laboratory Animal Center (Taiwan), and maintained on diets free of ovalbumin (OVA). Mice were sensitized by an intraperitoneal (i.p.) injection of 20 μg of OVA emulsified in 2.25 mg aluminum hydroxide gel in a total volume of 100 μl on days 0 and 14. For comparison, some mice were not sensitized, but received sham injection. All mice were challenged via the airway by OVA (1% in saline) for 30 min on days 28, 29, and 30 by ultrasonic nebulization. […] AHR was assessed on day 73 (48 h after 1% OVA provocation) for each group. […] The AHR was measured in unrestrained animals by barometric plethysmography using a whole-body plethysmograph (WBP) (Buxco, Troy, N.Y., USA). Mice were placed into the main chamber of the WBP and nebulized first with phosphate buffer solution (PBS), then with increasing doses (6.25-50 mg/ml) of methacholine (MCh) for 3 min for each nebulization, followed by readings of breathing parameters for 3 min after each nebulization with determination of enhanced pause (Penh) values. […] The number of inflammatory cells was counted using a hemacytometer (Hausser Sci., Horsham, Pa., USA). […]

[2] = tested on: OVA-sensitized and challenged BALB/c mice, methacholine-induced Penh; test: Airway hyperresponsiveness in vivo, Penh by whole-body plethysmography (Assay III); set-up: species or system mouse; conditions: i.p., FIG. 3A
Protocol: as §1

[3] = target: T2, high affinity rolipram binding sites (HARBS, PDE4H); test: Binding to particulate HARBS of whole brain, displacement of [3H]-rolipram (Assay II); set-up: species or system guinea pig; conditions: for IC50: guinea pig whole brain particulates; for bound to HARBS of the whole brain cell particulates: 300 μM, guinea pig, preliminary experimental data
T2 construct: IC50 for displacement of [3H]-rolipram from HARBS; other: 300 μM, guinea pig, preliminary experimental data; other: guinea pig whole brain particulates; over 300 μM not available due
Protocol: (§2) The binding experiments are carried on basis of the methods of Schneider et al. and Zhao et al. with a small modification. Under a protocol approved by the Animal Care and Use Committee of Taipei Medical University, five male guinea pigs (Hartley), weighing 500-600 g, were anesthetized. The whole brains taken therefrom were homogenized with in 10 volumes of cold medium (pH 6.5) containing 20 mM Bis-Tris, 2 mM benzamidine, 2 mM EDTA, 50 mM sodium chloride, 0.1 mM phenylmethanesulfonyl fluoride (PMSF), and 1 mM dithiothreitol. At 4° C., the homogenate was centrifuged at 170 g for 15 min for removing blood vessels and connective tissues, and the supernatant thereof was then re-centrifuged at 40,000 g for 30 min for separating the particulates from the cytosol of cells.
(§3) After incubation, the reaction was stopped by transferring the reaction vessel to a bath of crashed ice. Then the reaction mixture was filtered through a punched glass fiber filter (Whatman GF/B) placed in a mini funnel, which was adopted to a 1.5 ml of Eppendorff's tube for collecting the filtrate in the mini centrifuge at 1000 rpm for 10 seconds. By the same way (centrifugation), it is further washed with 0.3 ml reaction buffer each for three times. The Whatman GF/B filter was mixed with 2 ml of cocktail and counted by the β-scintillation counter (Backman, Fullerton, Calif., USA) for counting the radioactivity thereof.

[4] = tested on: cytokines (IL-2, IL-4, IL-5, TNF-α, IFN-γ) in BALF of OVA-sensitized BALB/c mice; test: Cytokines in BALF of OVA-sensitized mice (Assay III); format: in vivo, mouse; conditions: FIG. 3C
Protocol: as §1

[5] = tested on: OVA-induced contractions of sensitized guinea pig trachea; test: Cumulative OVA-induced contractions of isolated sensitized trachea in vitro (Assay IV); conditions: FIG. 4
Source text: The guinea pigs were ready for use after day 25 [20]. Under a protocol approved by the Animal Care and Use Committee of Taipei Medical University, the tracheae of guinea pigs (Hartley) were sacrificed and removed therefrom. The tracheae were carefully trimmed off the excessive surrounding tissues and cut into six segments. Each segment consisted of three cartilage rings. All segments were cut open opposite the trachealis. […] The composition of the normal Krebs solution was (mM): […] The tissues were suspended in normal Krebs solution under an initial tension of 1.5 g and allowed to equilibrate for at least 1 h with washing at 15-min intervals. After the tissues were precontracted with KCl (60 mM) and washed with normal Krebs solution, OVA (0.1-100 μg/ml) was cumulatively added, and contractions were allowed to reach a steady state at each concentration. […] The tension of precontraction induced by KCl before experiment was set as 100%.

[6] = tested on: high affinity rolipram binding sites (HARBS, PDE4H); test: Binding to particulate HARBS of whole brain, displacement of [3H]-rolipram (Assay II); set-up: species or system guinea pig; conditions: HARBS 50% binding concentration over PDE4 IC50
Protocol: as §2, §3

[7] = 2 nM [3H]-rolipram, FIG. 2, read-out: IC50 for displacement of [3H]-rolipram from HARBS
[8] = over 300 μM not available due to solubility, read-out: concentration for having 50% of HARBS bound

Structure (SMILES) | concentration for binding to an half of the LARBS (PDE4L (LARBS)) [µM] | enhancement of eosinophils in BALF ([1]; 3 μmol/kg i.p., compared with control group) | enhancement of total inflammatory cells, macrophages, lymphocytes, neutrophils and eosinophils in BALF ([1]; 10 and 30 μmol/kg i.p.) | Penh values compared with non-sensitized mice ([2]; 3~30 μmol/kg) | Penh values induced by 50 mg/ml MCh ([2]; 10 and 30 μmol/kg, sensitized mice) | IC50 [3, 7] [µM] | bound to HARBS of the whole brain cell particulates [3] [%] | IC50 [3, 8] [µM] | level of IL-5 in BALF ([4]; 3 and 10 μmol/kg i.p.) | enhancement of IL-2, IL-4, IL-5, TNF-α and IFN-γ levels in BALF ([4]; 3~30 μmol/kg, i.p.) | OVA (both 10 and 100 μg/ml)-induced contractions ([5]; 30 μM preincubated 15 min) | OVA (100 μg/ml)-induced contractions ([5]; 3~30 μM preincubated 15 min, standardized by 60 mM KCl) | PDE4H/PDE4L ratio [6]
COc1ccc(C2CC(=O)c3c(O)cc(O)cc3O2)cc1O (centres unmarked) [Hesperetin] | 28.2 | significantly suppressed | significantly suppressed | not significantly different | significantly suppressed | > 300 | 17.5 | > 300 | not suppressed | significantly suppressed | significantly antagonized | antagonized | 
COc1cc(O)c2c(=O)c(-c3ccc(O)cc3)coc2c1 [Prunetin] | 61.9 |  |  |  |  | > 300 | 24.2 | > 300 |  |  |  |  | greater than 5
